US8227492B2, “Sulfoxamine derivatives as factor Xa inhibitors” (Cadila Healthcare Limited, priority 2007, dated 2012)

Assays:
[1] = target: Factor Xa (Homo sapiens, UniProt P00742); assay: In vitro Factor Xa inhibition, chromogenic assay; assay type: biochemical; details: 0.1 μM compound; for inhibition at 0.1 µM: read-out: % Factor Xa inhibition at 0.1 μM using chromogenic assay
Description: (§1) In vitro Factor Xa inhibitory activities were determined as per standard protocols and the results of representative compounds are provided in tables 1 and 2 below as proof of the efficacies of the novel class of compounds disclosed above.

[2] = system: human plasma; assay: Prothrombin time doubling concentration (PTCT2) using human plasma; assay type: biochemical
Description: as §1

Chain of Factor Xa (P00742 235-488 limits assumed): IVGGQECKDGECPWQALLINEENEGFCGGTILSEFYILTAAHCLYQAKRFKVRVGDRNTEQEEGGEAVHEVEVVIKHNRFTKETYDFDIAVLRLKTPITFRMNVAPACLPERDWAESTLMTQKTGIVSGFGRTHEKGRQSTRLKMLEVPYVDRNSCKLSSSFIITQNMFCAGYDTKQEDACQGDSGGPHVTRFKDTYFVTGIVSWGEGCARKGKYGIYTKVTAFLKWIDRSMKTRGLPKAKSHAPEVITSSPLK
Chain of Factor Xa (P00742 41-179 partner limits assumed): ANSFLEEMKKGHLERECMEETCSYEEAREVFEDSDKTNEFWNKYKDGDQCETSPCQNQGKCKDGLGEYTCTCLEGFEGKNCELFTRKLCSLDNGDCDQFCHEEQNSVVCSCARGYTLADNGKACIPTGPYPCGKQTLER

Row | Molecule | inhibition at 0.1 µM [1] | PTCT2 (Conc. required to double the prothrombin time using human plasma) [2] | % Factor Xa inhibition at 0.1 μM using chromogenic assay [1]
1 | CS(=N)(=O)c1ccc(C(=O)Nc2ccc(Cl)cc2C(=O)Nc2ccc(Cl)cn2)cc1 (stereo not drawn) [Example 1, S-[4-(N-{2-[N-(5-chloro(2-pyridyl))carbamoyl]-4-chlorophenyl}carbamoyl)phenyl]-S-methyl Sulfoximide] | 75% |  | 
2 | CS(=N)(=O)c1ccccc1-c1ccc(C(=O)Nc2ccc(Cl)cc2C(=O)Nc2ccc(Cl)cn2)cc1 (stereo not drawn) [Example 4, S-(2-[4-(N-{2-[N-(5-chloro-2-pyridyl)carbamoyl]-4-chlorophenyl}carbamoyl)phenyl]-phenyl)-S-methyl sulfoximide] | 93% | 4.1 µM | 
3 | COc1cc(Cl)cc(C(=O)Nc2ccc(Cl)cn2)c1NC(=O)c1ccc(-c2ccccc2S(C)(=N)=O)cc1 (stereo not drawn) [Example 5, S-(2-[4-(N-{2-[N-(5-chloro-2-pyridyl)carbamoyl]-4-chloro-6-methoxyphenyl}carbamoyl)phenyl]-phenyl)-S-methyl Sulfoximide] | 95% | 0.69 µM | 
4 | CS(=O)(=O)N=S(C)(=O)c1ccccc1-c1ccc(C(=O)Nc2ccc(Cl)cc2C(=O)Nc2ccc(Cl)cn2)cc1 (stereo not drawn) [Example 14, S-(2-[4-(N-{2-[N-(5-chloro-2-pyridyl)carbamoyl]-4-chlorophenyl}carbamoyl)phenyl]-phenyl)-S-methyl-N-methanesulfonyl sulfoximide] | 84% |  | 
5 | CS(=O)(=NC(=O)c1ccncc1)c1ccccc1-c1ccc(C(=O)Nc2ccc(Cl)cc2C(=O)Nc2ccc(Cl)cn2)cc1 (stereo not drawn) [Example 24, S-(2-[4-(N-{2-[N-(5-chloro-2-pyridyl)carbamoyl]-4-chlorophenyl}carbamoyl)phenyl]-phenyl)-S-methyl-N-(4-pyridylcarbonyl)sulfoximide] | 85% |  | 
6 | CS(=O)(=NC(=O)C1CCNCC1)c1ccccc1-c1ccc(C(=O)Nc2ccc(Cl)cc2C(=O)Nc2ccc(Cl)cn2)cc1 (stereo not drawn) [Example 26, S-(2-[4-(N-{2-[N-(5-chloro-2-pyridyl)carbamoyl]-4-chlorophenyl}carbamoyl)phenyl]-phenyl)-S-methyl-N-(4-piperidinylcarbonyl)sulfoximide] | 69% |  | 
7 | CCN1CCC(C(=O)N=S(C)(=O)c2ccccc2-c2ccc(C(=O)Nc3ccc(Cl)cc3C(=O)Nc3ccc(Cl)cn3)cc2)CC1 (stereo not drawn) [Example 28, S-(2-[4-(N-{2-[N-(5-chloro-2-pyridyl)carbamoyl]-4-chlorophenyl}carbamoyl)phenyl]-phenyl)-S-methyl-N-(1-ethyl-piperidine-4-carbonyl)sulfoximide] | 82% |  | 
8 | COc1ccc(NC(=O)c2ccc(S(C)(=O)=NC(=O)CN(C)C)cc2)c(C(=O)Nc2ccc(Cl)cn2)c1 (stereo not drawn) [Example 40, S-[4-(N-{2-[N-(5-chloro(2-pyridyl))carbamoyl]-4-methoxyphenyl}carbamoyl)phenyl]-S-methyl-N-(2-dimethylamino-acetyl)sulfoximide] | 56% | 1.2 µM | 
9 | CN(C)CC(=O)N=S(C)(=O)c1ccccc1-c1ccc(C(=O)Nc2ccc(Cl)cc2C(=O)Nc2ccc(Cl)cn2)cc1 (stereo not drawn) [Example 41, S-(2-[4-(N-{2-[N-(5-chloro-2-pyridyl)carbamoyl]-4-chlorophenyl}carbamoyl)phenyl]-phenyl)-S-methyl-N-(2-dimethylamino-acetyl)sulfoximide] | 95% | 1.9 µM | 
10 | CCN(CC)CC(=O)N=S(C)(=O)c1ccc(C(=O)Nc2ccc(Cl)cc2C(=O)Nc2ccc(Cl)cn2)cc1 (stereo not drawn) [Example 42, S-[4-(N-{2-[N-(5-chloro(2-pyridyl))carbamoyl]-4-chlorophenyl}carbamoyl)phenyl]-S-methyl-N-(2-diethylamino-acetyl)sulfoximide] | 70% | 0.7 µM | 
11 | CCN(CC)CC(=O)N=S(C)(=O)c1ccccc1-c1ccc(C(=O)Nc2ccc(Cl)cc2C(=O)Nc2ccc(Cl)cn2)cc1 (stereo not drawn) [Example 43, S-(2-[4-(N-{2-[N-(5-chloro-2-pyridyl)carbamoyl]-4-chlorophenyl}carbamoyl)phenyl]-phenyl)-S-methyl-N-(2-diethylamino-acetyl)sulfoximide] | 79% |  | 
12 | CS(=O)(=NC(=O)CN1CCCC1)c1ccc(C(=O)Nc2ccc(Cl)cc2C(=O)Nc2ccc(Cl)cn2)cc1 (stereo not drawn) [Example 50, S-[4-(N-{2-[N-(5-chloro(2-pyridyl))carbamoyl]-4-chlorophenyl}carbamoyl)phenyl]-S-methyl-N-[(2-pyrrolidin-1-yl)-acetyl]sulfoximide] | 64% | 0.68 µM | 
13 | CS(=O)(=NC(=O)CN1CCCCC1)c1ccc(C(=O)Nc2ccc(Cl)cc2C(=O)Nc2ccc(Cl)cn2)cc1 (stereo not drawn) [Example 52, S-[4-(N-{2-[N-(5-chloro(2-pyridyl))carbamoyl]-4-chlorophenyl}carbamoyl)phenyl]-S-methyl-N-[(2-piperidin-1-yl)-acetyl]sulfoximide] | 60% |  | 
14 | CS(=O)(=NC(=O)CN1CCCCC1)c1ccccc1-c1ccc(C(=O)Nc2ccc(Cl)cc2C(=O)Nc2ccc(Cl)cn2)cc1 (stereo not drawn) [Example 53, S-(2-[4-(N-{2-[N-(5-chloro-2-pyridyl)carbamoyl]-4-chlorophenyl}carbamoyl)phenyl]-phenyl)-S-methyl-N-[(2-piperidin-1-yl)-acetyl]sulfoximide] | 79% |  | 
15 | CCN(CC)CCN=S(C)(=O)c1ccc(C(=O)Nc2ccc(Cl)cc2C(=O)Nc2ccc(Cl)cn2)cc1 (stereo not drawn) [Example 74, S-[4-(N-{2-[N-(5-chloro(2-pyridyl))carbamoyl]-4-chlorophenyl}carbamoyl)phenyl]-S-methyl-N-(2-(diethylamino)ethyl)sulfoximide] | 77% | 1.23 µM | 
16 | CS(=O)(=NCCN1CCCC1)c1ccc(C(=O)Nc2ccc(Cl)cc2C(=O)Nc2ccc(Cl)cn2)cc1 (stereo not drawn) [Example 75, S-[4-(N-{2-[N-(5-chloro(2-pyridyl))carbamoyl]-4-chlorophenyl}carbamoyl)phenyl]-S-methyl-N-(2-(pyrrolidin-1-yl)ethyl)sulfoximide] | 74% | 0.98 µM | 
17 | CN(C)CCN=S(C)(=O)c1ccc(C(=O)Nc2ccc(Cl)cc2C(=O)Nc2ccc(Cl)cn2)cc1 (stereo not drawn) [Example 76, S-[4-(N-{2-[N-(5-chloro(2-pyridyl))carbamoyl]-4-chlorophenyl}carbamoyl)phenyl]-S-methyl-N-[2-dimethylamino-ethyl]sulfoximide] | 66% | 1.14 µM | 
18 | S-(2-[4-(N-{2-[N-(5-chloro-2-pyridyl)carbamoyl]-4-chlorophenyl}carbamoyl)phenyl]-phenyl)-S-methyl-N-[2-(4-aminopiperidinyl)-acetyl]sulfoximide [Example 56] |  |  | 81%
